Experiments:
Type in all cases: in vivo
[1] = test system: barnyardgrass (Echinochloa crus-galli); test: Test B flooded paddy test; details: Flood, 250 g ai/ha
Protocol: (§1) Plant species in the flooded paddy test selected from rice (Oryza sativa), sedge, umbrella (small-flower umbrella sedge, Cyperus difformis), duck salad (Heteranthera limosa) and barnyardgrass (Echinochloa crus-galli) were grown to the 2-leaf stage for testing. At time of treatment, test pots were flooded to 3 cm above the soil surface, treated by application of test compounds directly to the paddy water, and then maintained at that water depth for the duration of the test. Treated plants and controls were maintained in a greenhouse for 13 to 15 d, after which time all species were compared to controls and visually evaluated. Plant response ratings, summarized in Table B, are based on a scale of 0 to 100 where 0 is no effect and 100 is complete control. A dash (-) response means no test result.

[2] = test system: duck salad (Heteranthera limosa); test: Test B flooded paddy test; details: Flood, 250 g ai/ha, Ducksalad
Protocol: as §1

rice (Oryza sativa) = test: Test B flooded paddy test; details: Flood, 250 g ai/ha
Protocol: as §1

[3] = test system: sedge, umbrella (small-flower umbrella sedge, Cyperus difformis); test: Test B flooded paddy test; details: Flood, 250 g ai/ha
Protocol: as §1

[4] = test system: chickweed (common chickweed, Stellaria media); test: Test C postemergence greenhouse test; details: scale 0 to 100
From the text: (§2) Seeds of plant species selected from blackgrass (Alopecurus myosuroides), ryegrass, Italian (Lolium multiflorum), wheat, winter (winter wheat, Triticum aestivum), galium (catchweed bedstraw, Galium aparine), corn (Zea mays), crabgrass, large (Digitaria sanguinalis), foxtail, giant (Setaria faberii), johnsongrass (Sorghum halepense), lambsquarters (Chenopodium album), morningglory (Ipomoea coccinea), nutsedge, yellow (Cyperus esculentus), pigweed (Amaranthus retroflexus), ragweed (common ragweed, Ambrosia elatior), soybean (Glycine max), barnyardgrass (Echinochloa crus-galli), oilseed rape (Brassica napus), waterhemp (common waterhemp, Amaranthus rudis), pigweed, palmer (Amaranthus palmeri), kochia (Kochia scoparia), oat, wild (Avena fatua), surinam grass (Brachiaria decumbens), windgrass (Apera spica-venti), poinsettia, wild (Euphorbia heterophylla) and velvetleaf (Abutilon theophrasti) were planted into a silt loam soil and treated preemergence with test chemicals formulated in a non-phytotoxic solvent mixture which included a surfactant.
(§3) At the same time, plants selected from these crop and weed species and also chickweed (common chickweed, Stellaria media), buckwheat, wild (Polygonum convolvulus), mustard, wild (Sinapis arvensis), field poppy (Papaver rhoeas), field violet (Viola arvensis), nightshade (eastern black nightshade, Solanum ptycanthum), speedwell (bird's-eye speedwell, Veronica persica), horseweed (Conyza canadensis), cutleaf geranium (Geranium dissectum), and Canada thistle (Cirsium arvense) were planted in pots containing Redi-Earth® planting medium (Scotts Company, 14111 Scottslawn Road, Marysville, Ohio 43041) comprising spaghnum peat moss, vermiculite, wetting agent and starter nutrients and treated with postemergence applications of test chemicals formulated in the same manner. Plants ranged in height from 2 to 18 cm (1- to 4-leaf stage) for postemergence treatments. Treated plants and controls were maintained in a greenhouse for 13 to 21 d, after which time all species were compared to controls and visually evaluated. Plant response ratings, summarized in Table C-1 (postemergence) and C-2 (preemergence), are based on a scale of 0 to 100 where 0 is no effect and 100 is complete control. A dash (-) response means no test result.

[5] = test system: field poppy (Papaver rhoeas); test: Test C postemergence greenhouse test; details: scale 0 to 100
From the text: as §2, §3

[6] = test system: barley, spring (Hordeum vulgare); test: Test D pre-/postemergence controlled growth environment test
[7] = test system: galium (catchweed bedstraw, Galium aparine); test: as above
kochia (Kochia scoparia) = test: as above
oat, wild (Avena fatua) = test: as above
[8] = test system: wheat, winter (Triticum aestivum); test: as above
How it was run: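 Potted seedlings at the 1- to 4-leaf stage, 2 to 18 cm tall, receive a postemergence application of test chemical formulated in a surfactant-containing non-phytotoxic solvent blend. They are held in a controlled growth environment for 14 to 21 d, then scored visually relative to controls from 0 (no effect) to 100 (complete control).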

Cc1ccc2ccc(Cl)cc2c1-c1c(O)c(Cl)nn(C)c1=O [Cpd. No. 22]
Plant response rating (0 to 100 scale) [1]: 40
Plant response rating (0 to 100 scale) [2]: 90
Plant response rating (0 to 100 scale) (rice (Oryza sativa)): 60
Plant response rating (0 to 100 scale) [3]: 85
Plant response rating, Chickweed ([4]; 16 g ai/ha): 100
Plant response rating, Chickweed ([4]; 31 g ai/ha): 98
Plant response rating, Chickweed ([4]; 62 g ai/ha): 100
Plant response rating, Chickweed ([4]; 125 g ai/ha): 100
Plant response rating, Field Poppy ([5]; 16 g ai/ha): 75
Plant response rating, Field Poppy ([5]; 31 g ai/ha): 75
Plant response rating, Field Poppy ([5]; 62 g ai/ha): 75
Plant response rating, Field Poppy ([5]; 125 g ai/ha): 100
Plant response rating, Barley, Spring ([6]; Postemergence, 31 g ai/ha): 67
Plant response rating, Barley, Spring ([6]; Postemergence, 62 g ai/ha): 85
Plant response rating, Galium ([7]; Postemergence, 31 g ai/ha): 92
Plant response rating, Galium ([7]; Postemergence, 62 g ai/ha): 96
Plant response rating, Kochia (kochia (Kochia scoparia); Postemergence, 31 g ai/ha): 37
Plant response rating, Kochia (kochia (Kochia scoparia); Postemergence, 62 g ai/ha): 58
Plant response rating, Oat, Wild (oat, wild (Avena fatua); Postemergence, 31 g ai/ha): 93
Plant response rating, Oat, Wild (oat, wild (Avena fatua); Postemergence, 62 g ai/ha): 98
Plant response rating, Wheat, Winter ([8]; Postemergence, 31 g ai/ha): 85
Plant response rating, Wheat, Winter ([8]; Postemergence, 62 g ai/ha): 95

Cc1ccc2ccc(C)c(-c3c(O)c(Cl)nn(C)c3=O)c2c1 [Cpd. No. 20, 6-chloro-4-(2,7-dimethyl-1-naphthalenyl)-5-hydroxy-2-methyl-3(2H)-pyridazinone]
Plant response rating (0 to 100 scale) [1]: 25
Plant response rating (0 to 100 scale) [2]: 100
Plant response rating (0 to 100 scale) (rice (Oryza sativa)): 15
Plant response rating (0 to 100 scale) [3]: 90
Plant response rating, Chickweed ([4]; 16 g ai/ha): 95
Plant response rating, Chickweed ([4]; 31 g ai/ha): 95
Plant response rating, Chickweed ([4]; 62 g ai/ha): 95
Plant response rating, Chickweed ([4]; 125 g ai/ha): 98
Plant response rating, Barley, Spring ([6]; Postemergence, 16 g ai/ha): 0
Plant response rating, Barley, Spring ([6]; Postemergence, 31 g ai/ha): 5
Plant response rating, Barley, Spring ([6]; Postemergence, 62 g ai/ha): 10
Plant response rating, Barley, Spring ([6]; Postemergence, 125 g ai/ha): 20
Plant response rating, Barley, Spring ([6]; Preemergence, 16 g ai/ha): 0
Plant response rating, Barley, Spring ([6]; Preemergence, 31 g ai/ha): 0
Plant response rating, Barley, Spring ([6]; Preemergence, 62 g ai/ha): 2
Plant response rating, Barley, Spring ([6]; Preemergence, 125 g ai/ha): 10
Plant response rating, Galium ([7]; Postemergence, 16 g ai/ha): 80
Plant response rating, Galium ([7]; Postemergence, 31 g ai/ha): 90
Plant response rating, Galium ([7]; Postemergence, 62 g ai/ha): 90
Plant response rating, Galium ([7]; Postemergence, 125 g ai/ha): 99
Plant response rating, Galium ([7]; Preemergence, 16 g ai/ha): 78
Plant response rating, Galium ([7]; Preemergence, 31 g ai/ha): 85
Plant response rating, Galium ([7]; Preemergence, 62 g ai/ha): 97
Plant response rating, Galium ([7]; Preemergence, 125 g ai/ha): 100
Plant response rating, Kochia (kochia (Kochia scoparia); Postemergence, 16 g ai/ha): 70
Plant response rating, Kochia (kochia (Kochia scoparia); Postemergence, 31 g ai/ha): 70
Plant response rating, Kochia (kochia (Kochia scoparia); Postemergence, 62 g ai/ha): 70
Plant response rating, Kochia (kochia (Kochia scoparia); Postemergence, 125 g ai/ha): 80
Plant response rating, Kochia (kochia (Kochia scoparia); Preemergence, 16 g ai/ha): 7
Plant response rating, Kochia (kochia (Kochia scoparia); Preemergence, 31 g ai/ha): 25
Plant response rating, Kochia (kochia (Kochia scoparia); Preemergence, 62 g ai/ha): 35
Plant response rating, Kochia (kochia (Kochia scoparia); Preemergence, 125 g ai/ha): 80
Plant response rating, Oat, Wild (oat, wild (Avena fatua); Postemergence, 16 g ai/ha): 25
Plant response rating, Oat, Wild (oat, wild (Avena fatua); Postemergence, 31 g ai/ha): 65
Plant response rating, Oat, Wild (oat, wild (Avena fatua); Postemergence, 62 g ai/ha): 80
Plant response rating, Oat, Wild (oat, wild (Avena fatua); Postemergence, 125 g ai/ha): 90
Plant response rating, Oat, Wild (oat, wild (Avena fatua); Preemergence, 16 g ai/ha): 22
Plant response rating, Oat, Wild (oat, wild (Avena fatua); Preemergence, 31 g ai/ha): 33
Plant response rating, Oat, Wild (oat, wild (Avena fatua); Preemergence, 62 g ai/ha): 73
Plant response rating, Oat, Wild (oat, wild (Avena fatua); Preemergence, 125 g ai/ha): 83
Plant response rating, Wheat, Winter ([8]; Postemergence, 16 g ai/ha): 10
Plant response rating, Wheat, Winter ([8]; Postemergence, 31 g ai/ha): 15
Plant response rating, Wheat, Winter ([8]; Postemergence, 62 g ai/ha): 20
Plant response rating, Wheat, Winter ([8]; Postemergence, 125 g ai/ha): 30
Plant response rating, Wheat, Winter ([8]; Preemergence, 16 g ai/ha): 0
Plant response rating, Wheat, Winter ([8]; Preemergence, 31 g ai/ha): 0
Plant response rating, Wheat, Winter ([8]; Preemergence, 62 g ai/ha): 5
Plant response rating, Wheat, Winter ([8]; Preemergence, 125 g ai/ha): 17

Reference: patent US12435044B2, “Pyridazinone herbicides and pyridazinone intermediates used to prepare a herbicide” (FMC Corporation, priority 2018, dated 2025)
